Test results: BindingDB's records for patent US20240182487 (Blossomhill Therapeutics, 2024)

Columns and labels:
Experiment in all cases: Biochemical Assay
[1] = target: Epidermal growth factor receptor [L858R] (Homo sapiens, UniProt P00533, L858R)
Method: (§1) Biochemical Assays for Inhibition of Wild-Type and Mutant EGFRs.The inhibitory activities against EGFR WT, EGFR Δ752-759 mutant, EGFR Δ746-750/T790M mutant, EGFR Δ746-750/C797S mutant, EGFR Δ746-750/T790M/C797S mutant. […] Briefly, specific kinase/substrate pairs along with required cofactors were prepared in reaction buffer; 20 mM Hepes pH 7.5, 10 mM MgCl2, 1 mM EGTA, 0.02% Brij35, 0.02 mg/ml BSA, 0.1 mM Na3VO4, 2 mM DTT, 1% DMSO. Compounds were delivered into the reaction, followed 20 minutes later by addition of a mixture of ATP (Sigma, St. Louis MO) and 33P ATP (Perkin Elmer, Waltham MA) to a final concentration of 10 μM. Reactions were carried out at room temperature for 120 min, followed by spotting of the reactions onto P81 ion exchange filter paper (Whatman Inc., Piscataway, NJ). Unbound phosphate was removed by extensive washing of filters in 0.75% phosphoric acid.

[2] = target: Epidermal growth factor receptor (Homo sapiens, UniProt P00533)
Method: as §1

[3] = target: Epidermal growth factor receptor [L858R,T790M,C797S] (Homo sapiens, UniProt P00533, C797S/L858R/T790M)
Method: as §1

[4] = target: Epidermal growth factor receptor [L858R,C797S] (Human, UniProt P00533, C797S/L858R)
Method: as §1

[5] = target: Epidermal growth factor receptor [T790M,L858R] (Homo sapiens, UniProt P00533, L858R/T790M)
Method: as §1

Sequence of Epidermal growth factor receptor [L858R,C797S] (P00533 25-1210 C797S/L858R limits assumed): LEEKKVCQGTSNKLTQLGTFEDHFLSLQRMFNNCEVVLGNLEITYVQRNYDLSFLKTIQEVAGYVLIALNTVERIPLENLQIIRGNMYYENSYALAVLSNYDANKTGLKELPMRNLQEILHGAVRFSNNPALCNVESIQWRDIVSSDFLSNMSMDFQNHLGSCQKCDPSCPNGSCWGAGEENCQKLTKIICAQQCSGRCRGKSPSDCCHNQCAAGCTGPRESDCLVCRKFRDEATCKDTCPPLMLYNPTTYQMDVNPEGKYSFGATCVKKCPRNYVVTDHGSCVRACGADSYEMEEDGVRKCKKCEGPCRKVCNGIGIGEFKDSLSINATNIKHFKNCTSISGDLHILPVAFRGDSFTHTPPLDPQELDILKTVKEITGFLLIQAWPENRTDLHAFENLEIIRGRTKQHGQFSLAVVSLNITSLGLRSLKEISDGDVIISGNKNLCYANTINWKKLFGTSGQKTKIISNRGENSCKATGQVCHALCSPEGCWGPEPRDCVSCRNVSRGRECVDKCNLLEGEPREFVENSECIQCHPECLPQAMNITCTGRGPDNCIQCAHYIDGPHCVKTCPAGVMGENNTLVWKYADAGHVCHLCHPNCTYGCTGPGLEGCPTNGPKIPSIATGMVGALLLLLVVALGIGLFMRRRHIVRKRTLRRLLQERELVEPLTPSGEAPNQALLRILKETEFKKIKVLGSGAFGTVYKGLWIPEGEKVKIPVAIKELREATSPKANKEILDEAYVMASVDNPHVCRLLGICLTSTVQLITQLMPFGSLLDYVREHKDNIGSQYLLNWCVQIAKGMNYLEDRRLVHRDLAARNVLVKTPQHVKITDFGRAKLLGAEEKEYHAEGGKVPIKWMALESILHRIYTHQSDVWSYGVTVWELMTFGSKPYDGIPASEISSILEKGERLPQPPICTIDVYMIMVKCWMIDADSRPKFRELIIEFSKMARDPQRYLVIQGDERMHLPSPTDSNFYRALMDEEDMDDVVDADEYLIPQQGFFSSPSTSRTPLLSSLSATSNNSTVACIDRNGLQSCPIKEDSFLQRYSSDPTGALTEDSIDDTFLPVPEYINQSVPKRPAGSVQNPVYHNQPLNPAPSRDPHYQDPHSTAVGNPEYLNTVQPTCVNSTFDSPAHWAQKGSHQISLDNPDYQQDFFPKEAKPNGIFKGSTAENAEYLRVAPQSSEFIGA
Sequence of Epidermal growth factor receptor [T790M,L858R] (P00533 25-1210 T790M/L858R limits assumed): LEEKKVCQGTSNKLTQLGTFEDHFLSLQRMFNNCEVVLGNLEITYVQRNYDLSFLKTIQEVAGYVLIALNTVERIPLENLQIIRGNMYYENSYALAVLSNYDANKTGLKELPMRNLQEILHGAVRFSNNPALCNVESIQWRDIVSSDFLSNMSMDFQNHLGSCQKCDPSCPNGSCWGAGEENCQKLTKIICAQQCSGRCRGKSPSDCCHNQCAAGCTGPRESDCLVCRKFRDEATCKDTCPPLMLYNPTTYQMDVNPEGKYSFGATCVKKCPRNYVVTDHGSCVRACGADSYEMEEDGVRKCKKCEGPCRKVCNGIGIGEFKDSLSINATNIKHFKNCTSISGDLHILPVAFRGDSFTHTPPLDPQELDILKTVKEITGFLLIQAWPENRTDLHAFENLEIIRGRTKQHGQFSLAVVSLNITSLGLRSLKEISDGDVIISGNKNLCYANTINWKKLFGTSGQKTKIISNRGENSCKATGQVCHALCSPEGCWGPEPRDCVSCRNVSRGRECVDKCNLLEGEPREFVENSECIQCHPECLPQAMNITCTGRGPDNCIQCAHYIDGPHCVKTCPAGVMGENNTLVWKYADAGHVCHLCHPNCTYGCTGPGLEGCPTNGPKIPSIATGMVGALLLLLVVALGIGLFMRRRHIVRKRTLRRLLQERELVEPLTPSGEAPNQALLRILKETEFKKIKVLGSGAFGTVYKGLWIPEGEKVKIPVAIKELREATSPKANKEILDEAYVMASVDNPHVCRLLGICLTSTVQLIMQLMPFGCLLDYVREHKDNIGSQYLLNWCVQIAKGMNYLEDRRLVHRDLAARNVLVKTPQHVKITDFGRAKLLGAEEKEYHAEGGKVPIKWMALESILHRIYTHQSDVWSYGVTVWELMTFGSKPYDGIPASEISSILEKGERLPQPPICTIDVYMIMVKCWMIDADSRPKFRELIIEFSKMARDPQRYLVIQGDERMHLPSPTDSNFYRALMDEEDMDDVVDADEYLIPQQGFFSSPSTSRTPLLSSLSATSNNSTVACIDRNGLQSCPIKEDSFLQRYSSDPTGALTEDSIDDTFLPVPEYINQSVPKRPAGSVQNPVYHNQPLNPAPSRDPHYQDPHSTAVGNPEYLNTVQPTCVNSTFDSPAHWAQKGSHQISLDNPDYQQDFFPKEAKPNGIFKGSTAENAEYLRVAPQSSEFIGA
Sequence of Epidermal growth factor receptor [L858R] (P00533 25-1210 L858R limits assumed): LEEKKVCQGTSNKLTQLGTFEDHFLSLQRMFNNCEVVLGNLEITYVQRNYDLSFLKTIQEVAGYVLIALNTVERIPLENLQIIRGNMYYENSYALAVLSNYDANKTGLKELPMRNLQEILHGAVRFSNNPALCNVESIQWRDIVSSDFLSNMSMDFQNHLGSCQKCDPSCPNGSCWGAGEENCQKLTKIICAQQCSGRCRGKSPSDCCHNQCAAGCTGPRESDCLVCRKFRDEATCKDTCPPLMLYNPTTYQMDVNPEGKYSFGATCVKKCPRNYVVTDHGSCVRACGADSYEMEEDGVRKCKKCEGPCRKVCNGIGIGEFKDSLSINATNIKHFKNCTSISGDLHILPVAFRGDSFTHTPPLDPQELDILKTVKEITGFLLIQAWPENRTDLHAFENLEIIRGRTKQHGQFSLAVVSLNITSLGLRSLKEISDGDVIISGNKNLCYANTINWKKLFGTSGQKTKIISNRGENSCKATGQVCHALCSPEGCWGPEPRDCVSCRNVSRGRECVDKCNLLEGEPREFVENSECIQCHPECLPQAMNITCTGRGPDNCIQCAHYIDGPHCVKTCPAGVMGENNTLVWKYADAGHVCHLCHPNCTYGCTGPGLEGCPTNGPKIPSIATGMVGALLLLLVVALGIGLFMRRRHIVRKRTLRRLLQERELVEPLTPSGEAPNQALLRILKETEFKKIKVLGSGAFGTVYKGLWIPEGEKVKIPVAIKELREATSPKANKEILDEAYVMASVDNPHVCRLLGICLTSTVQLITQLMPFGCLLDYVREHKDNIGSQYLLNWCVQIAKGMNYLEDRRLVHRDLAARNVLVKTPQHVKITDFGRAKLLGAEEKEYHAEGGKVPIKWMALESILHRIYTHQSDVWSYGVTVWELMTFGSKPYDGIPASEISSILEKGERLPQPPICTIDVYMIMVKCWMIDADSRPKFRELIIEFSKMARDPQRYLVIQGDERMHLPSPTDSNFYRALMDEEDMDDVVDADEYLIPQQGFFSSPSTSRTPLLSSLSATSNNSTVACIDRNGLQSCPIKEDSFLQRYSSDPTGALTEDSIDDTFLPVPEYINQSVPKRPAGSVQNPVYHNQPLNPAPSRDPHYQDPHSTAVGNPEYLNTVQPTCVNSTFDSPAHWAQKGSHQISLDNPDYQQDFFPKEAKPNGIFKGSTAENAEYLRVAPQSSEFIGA
Sequence of Epidermal growth factor receptor [L858R,T790M,C797S] (P00533 25-1210 T790M/C797S/L858R limits assumed): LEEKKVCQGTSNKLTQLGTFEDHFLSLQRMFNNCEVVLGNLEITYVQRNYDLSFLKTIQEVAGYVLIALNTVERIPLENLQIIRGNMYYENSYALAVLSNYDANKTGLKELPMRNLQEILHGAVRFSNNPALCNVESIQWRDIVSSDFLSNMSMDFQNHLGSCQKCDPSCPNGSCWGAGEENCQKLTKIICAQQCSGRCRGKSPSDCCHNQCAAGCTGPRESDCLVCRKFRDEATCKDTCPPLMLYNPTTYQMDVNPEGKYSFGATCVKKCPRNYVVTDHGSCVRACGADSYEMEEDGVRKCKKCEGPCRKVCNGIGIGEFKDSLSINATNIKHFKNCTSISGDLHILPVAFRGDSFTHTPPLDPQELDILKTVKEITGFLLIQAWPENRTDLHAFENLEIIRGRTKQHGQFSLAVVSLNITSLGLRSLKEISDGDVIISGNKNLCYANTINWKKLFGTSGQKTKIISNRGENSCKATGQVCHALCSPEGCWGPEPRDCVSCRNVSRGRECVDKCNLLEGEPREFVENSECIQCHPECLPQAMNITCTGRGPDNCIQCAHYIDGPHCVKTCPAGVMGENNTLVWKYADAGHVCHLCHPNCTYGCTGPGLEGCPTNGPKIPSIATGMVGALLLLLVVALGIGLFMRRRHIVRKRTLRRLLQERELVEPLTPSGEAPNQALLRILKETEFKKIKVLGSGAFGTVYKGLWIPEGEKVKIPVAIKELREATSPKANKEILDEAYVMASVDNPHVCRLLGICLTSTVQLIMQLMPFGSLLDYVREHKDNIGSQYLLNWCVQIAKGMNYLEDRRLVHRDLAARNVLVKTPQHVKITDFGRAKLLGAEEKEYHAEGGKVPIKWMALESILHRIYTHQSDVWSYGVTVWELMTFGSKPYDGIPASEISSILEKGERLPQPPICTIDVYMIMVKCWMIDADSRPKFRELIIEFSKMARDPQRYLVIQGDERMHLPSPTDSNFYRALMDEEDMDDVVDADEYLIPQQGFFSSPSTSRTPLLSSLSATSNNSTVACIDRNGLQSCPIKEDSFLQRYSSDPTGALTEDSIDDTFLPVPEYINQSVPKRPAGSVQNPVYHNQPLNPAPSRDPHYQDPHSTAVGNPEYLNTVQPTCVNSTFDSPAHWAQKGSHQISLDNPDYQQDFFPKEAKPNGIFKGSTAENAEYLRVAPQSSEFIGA

SMILES	IC50 [1] [nM]	IC50 [2] [nM]	IC50 [3] [nM]	IC50 [4] [nM]	IC50 [5] [nM]
CCc1c2c(nn1C)C(=O)N(C)CCOc1cnc(OC)cc1-c1cc3c(n[nH]c3cn1)/C=C/2 [US20240182487, Compound 66]	> 10000				
CN1CCC(NC(=O)c2ccc3c(c2)/C=C/c2n[nH]c4cnc(cc24)-c2cnn(C)c2COCCO3)CC1 [US20240182487, Compound 93]	7.2	55.8	4.2		
CN1CC[C@@H](NC(=O)c2ccc3c(c2)OCCCOc2c(cnn2C)-c2cc4c(n[nH]c4cn2)/C=C/3)C1 [US20240182487, Compound 82]	5.4	9.8	12		
CN1CC[C@@H](NC(=O)c2ccc3c(c2)OCCOCc2c(cnn2C)-c2cc4c(n[nH]c4cn2)/C=C/3)C1 [US20240182487, Compound 87]	16.3	80.1	17.2		
CCc1c2c(nn1C)C(=O)N(C)CCCOc1cnc(OC)cc1-c1cc3c(n[nH]c3cn1)/C=C/2 [US20240182487, Compound 64]	> 10000				
Cn1ncc2c1COCCOc1ccc(C(=O)O)cc1/C=C/c1n[nH]c3cnc-2cc13 [US20240182487, Compound 92]	66.4	271	55.5		
COC(=O)c1ccc2c(c1)/C=C/c1n[nH]c3cnc(cc13)-c1cnn(C)c1OCCCO2 [US20240182487, Compound 68]		159	16.6		
Cc1nc2cc3c(n[nH]c13)/C=C/c1cc(F)ccc1OCCCOc1c-2cnn1C [US20240182487, Compound 98]	1110	1240	192		
CN(C)CCCNC(=O)c1ccc2c(c1)/C=C/c1n[nH]c3cnc(cc13)-c1cnn(C)c1COCCO2 [US20240182487, Compound 91]	28.2	97.2	10.2		
Cn1ncc2c1COCCOc1ccccc1/C=C/c1n[nH]c3cnc-2cc13 [US20240182487, Compound 63]	50	98.4	8.8	61.9	5.8
Cn1ncc2c1COCCOc1ccccc1/C=C/c1n[nH]c3cnc-2nc13 [US20240182487, Compound 16]	350	551	263	481	168
CN1CC[C@H](NC(=O)c2ccc3c(c2)OCCCOc2c(cnn2C)-c2cc4c(n[nH]c4cn2)/C=C/3)C1 [US20240182487, Compound 88]	4.1	19.3	10.3		
CN1CCN(C(=O)c2ccc3c(c2)/C=C/c2n[nH]c4cnc(cc24)-c2cnn(C)c2COCCO3)CC1 [US20240182487, Compound 96]	470	586	343		
CN1CCOCCN(c2ccc(F)c(Cl)c2)c2cc3c(n[nH]c3cn2)/C=C/c2cn(C)nc2C1=O [US20240182487, Compound 99]	25.5	33.5		50.2	> 10000
CNC(=O)c1ccc2c(c1)/C=C/c1n[nH]c3cnc(cc13)-c1cnn(C)c1OCCCO2 [US20240182487, Compound 86]	4.9	24.1	8.8		
CN(C)CCNC(=O)c1ccc2c(c1)/C=C/c1n[nH]c3cnc(cc13)-c1cnn(C)c1COCCO2 [US20240182487, Compound 90]	22.2	73.7	8.6		
COC(=O)c1ccc2c(c1)OCCCOc1c(cnn1C)-c1cc3c(n[nH]c3cn1)/C=C/2 [US20240182487, Compound 67]	1720	1000	112		
CN1CCC(NC(=O)c2ccc3c(c2)/C=C/c2n[nH]c4cnc(cc24)-c2cnn(C)c2OCCCO3)CC1 [US20240182487, Compound 97]	4.5	3.1	3.4		
CC(C)NC(=O)c1ccc2c(c1)OCCCOc1c(cnn1C)-c1cc3c(n[nH]c3cn1)/C=C/2 [US20240182487, Compound 77]	57.9		172		

SMILES	IC50 [1] [nM]	IC50 [2] [nM]	IC50 [3] [nM]	IC50 [4] [nM]	IC50 [5] [nM]
CN1CC(NC(=O)c2ccc3c(c2)OCCCOc2c(cnn2C)-c2cc4c(n[nH]c4cn2)/C=C/3)C1 [US20240182487, Compound 83]	6	11.2	13.8		
CCNC(=O)c1ccc2c(c1)OCCOCc1c(cnn1C)-c1cc3c(n[nH]c3cn1)/C=C/2 [US20240182487, Compound 84]	433	884	160		
Cn1ncc2c1OCCCOc1cc(C(=O)O)ccc1/C=C/c1n[nH]c3cnc-2cc13 [US20240182487, Compound 73]	39	88.6	220		
CN1CCC(NC(=O)c2ccc3c(c2)OCCOCc2c(cnn2C)-c2cc4c(n[nH]c4cn2)/C=C/3)CC1 [US20240182487, Compound 85]	40.7	140	31		
CCc1nn(C)c2c1/C=C/c1n[nH]c3cnc(cc13)-c1cc(F)ccc1OCCN(C)C2=O [US20240182487, Compound 62]	136	306	32.4	104	36.3
Cc1ccc2c(n1)/C=C/c1n[nH]c3cnc(nc13)-c1cnn(C)c1C(C)OCCO2 (configuration not stated) [US20240182487, Compound 65]	140	438	91.2		23.4
Cc1ccc2c(n1)/C=C/c1n[nH]c3cnc(cc13)-c1cnn(C)c1C(C)OCCO2 (configuration not stated) [US20240182487, Compound 95]	74.9	91.6	35		
Cn1ncc2c1OCCCOc1ccc(C(=O)N3CCCC3)cc1/C=C/c1n[nH]c3cnc-2cc13 [US20240182487, Compound 72]	23.7	48.7	64.7		
CN1CCC(NC(=O)c2ccc3c(c2)OCCCOc2c(cnn2C)-c2cc4c(n[nH]c4cn2)/C=C/3)CC1 [US20240182487, Compound 78]	2.9	6.2	10.6		
COC(=O)c1ccc2c(c1)OCCOCc1c(cnn1C)-c1cc3c(n[nH]c3cn1)/C=C/2 [US20240182487, Compound 69]			98.3		
CCc1c2c(nn1C)C(=O)N(C)CCOc1c[nH]c(=O)cc1-c1cc3c(n[nH]c3cn1)/C=C/2 [US20240182487, Compound 38]			1130		
CN(C)CCCNC(=O)c1ccc2c(c1)/C=C/c1n[nH]c3cnc(cc13)-c1cnn(C)c1OCCCO2 [US20240182487, Compound 70]	2.2	5.9	5.3		
CCNC(=O)c1ccc2c(c1)/C=C/c1n[nH]c3cnc(cc13)-c1cnn(C)c1COCCO2 [US20240182487, Compound 89]	32	158			
COC(=O)c1ccc2c(c1)/C=C/c1n[nH]c3cnc(cc13)-c1cnn(C)c1COCCO2 [US20240182487, Compound 75]	165	938	184		
Cn1ncc2c1OCCCOc1ccc(F)cc1/C=C/c1n[nH]c3cnc-2cc13 [US20240182487, Compound 100]	13.9	176	27.5		
CN1CCC(CNC(=O)c2ccc3c(c2)/C=C/c2n[nH]c4cnc(cc24)-c2cnn(C)c2OCCCO3)CC1 [US20240182487, Compound 76]	1.2		3.1		
CN(C)CCNC(=O)c1ccc2c(c1)OCCCOc1c(cnn1C)-c1cc3c(n[nH]c3cn1)/C=C/2 [US20240182487, Compound 74]	2.8	5.7	8.3		
CN1CCC(CNC(=O)c2ccc3c(c2)/C=C/c2n[nH]c4cnc(cc24)-c2cnn(C)c2COCCO3)CC1 [US20240182487, Compound 94]	9.2	101	9.9		
